How the values were obtained:
human memory = conditions: M. Sarter et al., TINS 11, 13 (1988); cited from earlier work
Benzodiazepine Receptor = assay: Test on Binding to Benzodiazepine Receptor (inhibition of specific binding of tritium-labeled diazepam); set-up: species or system male Wistar rats; conditions: rat cerebral cortex; 2 nM tritium-labeled diazepam; 0° C., 60 minutes; Ki=IC50÷(1+L/Kd)
Procedure: This test was carried out modifying partially a method of Moehler & Okada, Science, 198, 849-851 (1977). Receptor preparation was provided from the cerebral cortex of male Wistar rats (11-13 weeks age). Inhibitory action of the test compound on the specific binding of tritium-labeled diazepam to the receptor was evaluated as follows: 2 nM tritium-labeled diazepam and an aqueous solution of the test compound in 5 or 6 different concentrations were incubated with the receptor preparation at 0° C. for 60 minutes. The 50% inhibitory concentration (IC50) was measured by the concentration-response curve. In addition, the inhibitory constant (Ki) of the test compound was calculated by dissociation constant (Kd) and concentration (L) of tritium-labelled diazepam.

[1] = system: Pentylenetetrazole-Induced Convulsion; assay: Antagonism of Pentylenetetrazole-Induced Convulsion (agonistic activity); type: in vivo; conditions: Mus musculus, iv; male mice; test compound i.v.; pentylenetetrazole 125 mg/kg s.c.; 2-hour observation; probit method; read-out: ED50 (dose required to prevent tonic convulsion and death in 50% of the animals)
Procedure: (§1) Agonistic activity was evaluated in this Experiment. Pentylenetetrazole was subcutaneously administered male mice (a group of 8-16 male mice was employed in each test) at a dose of 125 mg/kg immediately after intravenous injection of the test compound. The dose (ED50) required to prevent tonic convulsion and death in 50% of the animals during subsequent 2-hour observation period was calculated by the probit method.

[2] = system: Pentylenetetrazole-Induced Convulsion; assay: Potentiation of Pentylenetetrazole-Induced Convulsion (inverse agonist activity); type: in vivo; conditions: Mus musculus, iv; male mice; test compound i.v.; pentylenetetrazole 90 mg/kg s.c.; 2-hour observation; probit method; read-out: ED50 (dose required to produce tonic convulsion and death in 50% of the animals)
Procedure: as §1, with “Inverse agonist” for “Agonistic”, “subscutaneously” for “subcutaneously”, “90” for “125”, “produce” for “prevent”

CN1C(=O)CN=C(c2ccccc2)c2cc(Cl)ccc21 [diazepam]
effect on human memory (human memory): inhibits human memory

Cc1cc(-c2nc3cnc4c(c3[nH]2)COCC4)on1 [Ib-5]
Ki (Benzodiazepine Receptor): 6.97 nM | ED50 [1]: 0.8 mg/kg

c1cc(-c2nc3cnc4c(c3[nH]2)CCC4)no1 [Id-1]
Ki (Benzodiazepine Receptor): 2.55 nM | ED50 [2]: 0.4 mg/kg

CCOC(=O)N1CCc2ncc3nc(-c4ccon4)[nH]c3c2C1 [Ig-1, 2-(3-isoxazolyl)-8-ethoxycarbonyl-6,7,8,9-tetrahydro-1H-imidazo[4,5-c]naphthylidine]
Ki (Benzodiazepine Receptor): 2.8 nM | ED50 [1]: 3.69 mg/kg

c1cc(-c2nc3cnc4c(c3[nH]2)CCCCC4)no1 [Ic-6]
Ki (Benzodiazepine Receptor): 2.29 nM

Cc1cc(-c2nc3cnc4c(c3[nH]2)CCC4)on1 [Id-2]
Ki (Benzodiazepine Receptor): 8.94 nM | ED50 [1]: 0.74 mg/kg

c1coc(-c2nc3cnc4c(c3[nH]2)CCCC4)c1 [Ia-5]
Ki (Benzodiazepine Receptor): 3.46 nM

c1ccc(-c2nc3cnc4c(c3[nH]2)CCCC4)cc1 [Ia-1, 2-Phenyl-6,7,8,9-tetrahydro-1H-imidazo[4,5-c]quinoline]
Ki (Benzodiazepine Receptor): 13.7 nM | ED50 [1]: 7.85 mg/kg

c1cc(-c2nc3cnc4c(c3[nH]2)CSCC4)no1 [If-1, 2-(3-Isoxazolyl)-1,6,7,9-tetrahydroimidazo[4,5-d]-thiopyrano[4,3-b]pyridine]
Ki (Benzodiazepine Receptor): 0.44 nM | ED50 [2]: 0.96 mg/kg

c1csc(-c2nc3cnc4c(c3[nH]2)CCCC4)c1 [Ia-3]
Ki (Benzodiazepine Receptor): 1.9 nM

c1cc(-c2nc3cnc4c(c3[nH]2)CCCC4)no1 [Ia-7, 2-(3-Isoxazolyl) -6,7,8,9-tetrahydro-1H-imidazo[4,5-c]quinoline]
Ki (Benzodiazepine Receptor): 1.3 nM

Cc1cc(-c2nc3cnc4c(c3[nH]2)CCCCC4)on1 [Ic-7]
Ki (Benzodiazepine Receptor): 9.47 nM | ED50 [1]: 1.05 mg/kg

c1cc(-c2nc3cnc4c(c3[nH]2)COCC4)no1 [Ib-7, 2-(3-Isoxazolyl)-1,6,7,9-tetrahydroimidazo[4,5-d]pyrano[4,3-b]pyridine]
Ki (Benzodiazepine Receptor): 2.09 nM | ED50 [2]: 1.27 mg/kg

c1csc(-c2nc3cnc4c(c3[nH]2)CCCCC4)c1 [Ic-3]
Ki (Benzodiazepine Receptor): 6.06 nM

CC1(C)Cc2ncc3nc(-c4ccon4)[nH]c3c2C1 [Ie-1, 2-(3-Isoxazolyl]-7,7-dimethyl-1H-imidazo[4,5-d]-cyclopenta[b]pyridine]
Ki (Benzodiazepine Receptor): 7.2 nM | ED50 [2]: 0.25 mg/kg

Cc1cc(-c2nc3cnc4c(c3[nH]2)CCCC4)on1 [Ia-6]
Ki (Benzodiazepine Receptor): 2.19 nM | ED50 [1]: 0.17 mg/kg
